Laboratory results: ChEMBL document CHEMBL1201862, “PubChem BioAssay data set” (2004)
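Growth conditions: 96-well plates. Treatment: test compound, 48 hours, 5 concentrations. Analysis: linear interpolation between bracketing concentrations; unreached endpoints set to highest concentration. Here, GI50 denotes the concentration required for 50% inhibition of growth.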 Active and inactive are the calls of the source. Cut-off read from the data, not from the text of the source: active = GI50 up to about 1.1 µM and inactive = higher.

Key:
Experiment in all cases: NCI anticancer screen, dose series, 48 h
CCRF-CEM = system: CCRF-CEM
NCI-H460 = system: NCI-H460
DU-145 = system: DU-145
HT-29 = system: HT-29
TK-10 = system: TK-10
CAKI-1 = system: CAKI-1
OVCAR-3 = system: OVCAR-3
NCI/ADR-RES = system: NCI/ADR-RES
Hs-578T = system: Hs-578T
M14 = system: M14
OVCAR-5 = system: OVCAR-5
ACHN = system: ACHN
RXF 393 = system: RXF 393
OVCAR-8 = system: OVCAR-8
SF-295 = system: SF-295
A498 = system: A498
RPMI-8226 = system: RPMI-8226
MDA-N = system: MDA-N
SK-OV-3 = system: SK-OV-3
SK-MEL-5 = system: SK-MEL-5

Measured: GI50

CC(=O)OCCOCn1cc(C=O)c2ccccc21
inactive: CCRF-CEM > 100 µM | NCI-H460 33.2 µM | DU-145 > 100 µM | HT-29 > 100 µM | TK-10 > 100 µM | CAKI-1 > 100 µM | OVCAR-3 > 100 µM | NCI/ADR-RES > 100 µM | Hs-578T > 100 µM | M14 > 100 µM | OVCAR-5 67.5 µM | ACHN > 100 µM | RXF 393 > 100 µM | OVCAR-8 > 100 µM | SF-295 > 100 µM | A498 1.95 µM | RPMI-8226 > 100 µM | MDA-N > 100 µM | SK-OV-3 > 100 µM | SK-MEL-5 75 µM

C=C(C)[C@@H]1CC[C@]2(C(=O)O)CC[C@]3(C)[C@H](CC[C@@H]4[C@@]5(C)CC[C@H](O)C(C)(C)[C@@H]5CC[C@]43C)[C@@H]12 [BETULINIC ACID]
inactive: CCRF-CEM 5.15 µM | NCI-H460 7.28 µM | DU-145 9.71 µM | HT-29 8.24 µM | TK-10 14.8 µM | CAKI-1 11.6 µM | OVCAR-3 2.61 µM | NCI/ADR-RES 7.23 µM | Hs-578T 10.8 µM | M14 10.3 µM | OVCAR-5 12.4 µM | ACHN 8.28 µM | RXF 393 2.64 µM | OVCAR-8 4.85 µM | SF-295 7.71 µM | A498 6.08 µM | RPMI-8226 7.36 µM | MDA-N 16.7 µM | SK-OV-3 15.9 µM | SK-MEL-5 4.19 µM
